Source: patent US11478474B2, “2-(3′-(hydroxymethyl)-1-methyl-5-((5-(2-methyl-4-(oxetan-3-yl)piperazin-1-yl)pyridin-2-yl)amino)-6-oxo-1,6-dihydro-[3,4′-bipyridin]-2′-yl)-7,7-dimethyl-7,8-dihydro-2H-cyclopenta[4,5]pyrrolo[1,2-a]pyrazin-1(6H)-one as a BTK inhibitor” (HUTCHISON MEDIPHARMA LIMITED, priority 2020, dated 2022)

What was measured:
BTK recombinant protein = BTK recombinant protein (Homo sapiens (Human), UniProt Q06187); assay: Determination of biochemical BTK (Z'-LYTE kinase assay)
From the text: Example 2 Determination of Biochemical BTK
(§1) 1. Reagents and Materials
BTK recombinant protein: Invitrogen, Cat #PV3363;
Z′-LYTE® kinase test kit-tyrosine 1 peptide: Invitrogen, Cat #PV3190;
Z′-LYTE® biochemical assay employs a fluorescence resonance energy transfer (FRET)—based, coupled-enzyme format and is based on the differential sensitivity of phosphorylated and non-phosphorylated peptides to proteolytic cleavage. Both ends of the short peptide substrate are labeled with two fluorescent groups to form a FRET paired combination. In the primary reaction (the Kinase Reaction), the kinase transfers the γ-phosphate of ATP to a single […] residue on the short peptide substrate. In the secondary reaction (the development reaction), the non-phosphorylated short peptides were recognized and cleaved by a site-specific protease (the development reagent). Phosphorylated short peptides can resist such cleavage. Cleavage of short peptides can disrupt the donor (such as coumarin) and receptor fluorophores (fluorescein) on the short peptides, while the phosphorylated short peptides can maintain FRET. The calculation method of the ratio is as follows, and the ratio of the respective emission signals generated by the donor fluorophores emitted (after excitation at 400 nm) to the receptors is calculated. Emission signal ratio=emitted light by coumarin (445 nm)/emitted light by fluorescein (520 nm). If the FRET short peptide is phosphorylated (such as no kinase inhibitor), the emitted light ratio will remain in a lower level. If the FRET short peptide is non-phosphorylated (such as kinase inhibitor), the emitted light ratio will be in a higher level. In this way, the inhibitory effects of different compound inhibitors on BTK kinase activity would be distinguished.
The experiment were carried out according to the instructions of the Z′-LYTE® kinase test kit-tyrosine 1 peptide. Reagent preparation: 1.33× kinase buffer: 5× kinase buffer was diluted with water to 1.33× kinase buffer; an enzyme solution: the kinase was dissolved in 1.33× kinase buffer with the final working concentration being 3.32 nM; a short peptide solution: a short peptide stock solution (1 mM dissolved in DMSO) was dissolved in 1.33× kinase buffer with the final working concentration being 2 μM; Z′-LYTE Tyr01 phosphorylated short peptide solution, 0.6 μl of stock solution (1 mM dissolved in DMSO) was dissolved in 149.4 μl of 1.33× kinase buffer; an ATP solution: an ATP stock solution (10 mM aqueous solution) was dissolved in 1.33× kinase buffer with the final working concentration being 32 μM; a color-developing solution: color-developing solution B was dissolved in color-developing buffer with the final working concentration being 1× color-developing solution; 4× compound preparation: the compound was diluted in 3-fold gradient concentration to finally obtain 4% DMSO aqueous solution containing different concentrations of the compound, with the final working concentration being 3000, 1000, 333.33, 111.11, 37.04, 12.35, 4.12, 1.37 nM, 8 concentration points in total.
Specific steps of the experiment: In the experiment, there were three control groups, each with 8 replicate wells, which were C1 100% inhibition group (no ATP), C2 0% inhibition group (with ATP), and C3 100% phosphorylation group, respectively. 2.5 μl of serially diluted compound was added to each well of a 384-well plate, with double replicate wells, and 4% DMSO solution was added to wells C1, C2, and C3. After that, except for wells C3, 2.5 μl of BTK enzyme solution was added to each remaining well, which was left to stand at 4° C. for 30 minutes. After that, except for wells C3, 2.5 μl of short peptide solution was added to each well, and 5 μl of phosphorylated short peptide solution was added to each of wells C3. 2.5 μl of 1.33× kinase buffer was added to each of wells C1 and C3, and 2.5 μl of ATP solution was added to each of the remaining wells. […]

[1] = target: phosphorylated BTK in Ramos cells (Homo sapiens (Human), UniProt Q06187); assay: Determination of phosphorylated BTK in Ramos cells (BTK phospho-Y223 HTRF); format: cell-based; conditions: anti-human IgM + hydrogen peroxide stimulation
Chain of phosphorylated BTK in Ramos cells (Q06187 whole entry): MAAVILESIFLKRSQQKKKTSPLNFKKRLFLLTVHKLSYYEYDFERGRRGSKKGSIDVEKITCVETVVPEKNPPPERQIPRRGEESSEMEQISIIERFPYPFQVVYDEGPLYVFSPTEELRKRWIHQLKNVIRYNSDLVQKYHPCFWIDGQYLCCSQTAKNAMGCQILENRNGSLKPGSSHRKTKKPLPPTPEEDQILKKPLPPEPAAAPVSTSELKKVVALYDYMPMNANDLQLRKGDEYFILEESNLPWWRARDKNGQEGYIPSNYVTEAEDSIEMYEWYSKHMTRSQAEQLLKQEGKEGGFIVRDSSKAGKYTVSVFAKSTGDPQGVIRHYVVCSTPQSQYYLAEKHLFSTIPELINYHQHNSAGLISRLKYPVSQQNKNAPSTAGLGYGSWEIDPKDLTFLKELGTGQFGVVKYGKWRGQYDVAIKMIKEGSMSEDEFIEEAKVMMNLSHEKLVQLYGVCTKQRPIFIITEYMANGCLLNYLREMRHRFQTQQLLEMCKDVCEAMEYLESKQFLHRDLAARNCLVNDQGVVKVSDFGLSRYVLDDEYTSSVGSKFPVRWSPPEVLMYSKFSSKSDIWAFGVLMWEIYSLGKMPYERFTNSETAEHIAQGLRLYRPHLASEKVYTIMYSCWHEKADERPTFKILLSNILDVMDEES
Description: Determination of Phosphorylated BTK in Ramos Cells
as §1
Ramos cells: Ramos cells were purchased from American Standard Biological Collection Center ATCC Cell Bank, PRMI 1640 medium containing L-glutamine, 1.5 g/L of sodium bicarbonate, 2.383 g/L of HEPES solution, 0.11 g/L of sodium pyruvate and 4.5 g/L of glucose was used, added 10% fetal bovine serum FBS, and placed in a 5% CO2, 37° C. cell incubator for normal culture;
Phosphorylated BTK HTRF detection kit (BTK phospho-Y223 HTRF kit): Cisbio, Cat #63ADK017PEH;
Ramos cells were starved in PRMI 1640 medium with 1% FBS for 2 hours. The starved Ramos cells were diluted with Hank's balanced salt solution to 5.0×10^6 cells/ml, seeded in a 96-well plate with 20 μL/well (1.0×10^5 cells/well), and cultured in a 5% CO2, 37° C. cell incubator. After culturing for 1 hour, the test compound was diluted with Hank's balanced salt solution in 4-fold gradient to the corresponding concentrations, and then 5 μL/well of the diluted test compound with different concentrations (the final concentrations of the test compound were 3.0, 0.75, 0.188, 0.047, 0.012, 0.0029, 0.0007 and 0.00018 μM, and the final concentration of DMSO was 0.3%, double replicate wells) or 5 μL/well of control solution (1.5% DMSO, 8 replicate wells) were added to 20 μL/well of cell culture system, which incubated together for another hour, then 5 μL/well of a mixed solution of human immunoglobulin M (final concentration was 10 μg/mL) and hydrogen peroxide (final concentration was 3.3 mM) diluted with Hank's balanced salt solution was added to the treating wells for the test compound and the control treating wells for anti-human immunoglobulin M, and 5 μL/well of Hank's balanced salt solution was added to negative control treating wells. The plate was incubated in a 5% CO2, 37° C. cell incubator for 10 minutes.
10 μL/well of cell lysis buffer was added to each well of a 96-well plate, which was mixed well and lysed at room temperature for 30 minutes. 16 μL/well of lysis buffer was pipetted to a new 384 well plate, and then added 4 μL/well of phosphorylated BTK antibody, centrifuged (1000 rpm) for 1 minute, then shaken for 1 minute, further centrifuged (1000 rpm) for 1 minute, and finally placed in a constant temperature incubator overnight. Detection was performed on the next day.
The 384 well plate incubated overnight in the constant temperature incubator was taken out to detect the luminescence signal using the Envision microwell plate reader at the […]. The reading value at 665 nm/615 nm of each well multiplied by 104 was used as the signal value of each well.
The average signal value of the wells supplemented with the mixed solution of human immunoglobulin M (final concentration was 10 μg/mL) and hydrogen peroxide (final concentration was 3.3 mM) without the test compound was regarded as the high value, and the average signal value of the wells without immunoglobulin M stimulation and without the test compound was regarded as the low value. According to the signal value in each well, the inhibition ratio (%) of each concentration of compounds was calculated, and the 205 model in XL-Fit 5.3 software (ID Business Solutions Limited) was used to obtain an IC50 value.
The inhibition ratio is calculated as follows: inhibition ratio (%)=100%−{(treating well for the test compound−negative control treating well)/(control treating well for anti-human immunoglobulin M−negative control treating well)}×100%, wherein,
Treating well for the test compound: represents the signal value of Ramos cells treated with anti-human immunoglobulin M, hydrogen peroxide and the test compound.
Control treating well for anti-human immunoglobulin M: represents the signal value of Ramos cells treated with anti-human immunoglobulin M, hydrogen peroxide but without the test compound. […]

Chain of BTK recombinant protein (Q06187 whole entry): as above

| Structure (SMILES) | IC50 (BTK recombinant protein) [nM] | IC50 [1] [nM] |
| --- | --- | --- |
| COCCN1CCn2nc(Nc3cc(-c4ccnc(-n5ncn6c7c(cc6c5=O)CC(C)(C)C7)c4CO)cn(C)c3=O)cc2C1C (racemic) [Compound 110, (RS)-2-(3′-(hydroxymethyl)-5-((5-(2-methoxyethyl)-4-methyl-4,5,6,7-tetrahydropyrazolo[1,5-a]pyrazin-2-yl)amido)-1-methyl-6-oxo-1,6-dihydro-[3,4′-bispyridin]-2′-yl)-7,7-dimethyl-7,8-dihydro-2H-cyclopenta[4,5]pyrrolo[1,2-d][1,2,4]triazin-1(6H)-one] | 2 | 2 |
| Cn1cc(-c2ccnc(-n3ncn4c5c(cc4c3=O)CC(C)(C)C5)c2CO)cc(Nc2cc3n(n2)CCN(C2CC2)C3)c1=O [Compound 171] | 13 | 11 |
| Cn1cc(-c2ccnc(-n3ccn4c5c(cc4c3=O)CC(C)(C)C5)c2CO)cc(Nc2cc3n(n2)CCN(C#N)C3)c1=O [Compound 135, 2-((2′-(7,7-dimethyl-1-oxo-1,6,7,8-tetrahydro-2H-cyclopenta[4,5]pyrrolo[1,2-a]pyrazin-2-yl)-3′-(hydroxymethyl)-1-methyl-6-oxo-1,6-dihydro-[3,4′-bispyridin]-5-yl)amino)-6,7-dihydropyrazolo[1,5-a]pyrazin-5(4H)-nitrile] | 8 | 5 |
| COc1ccc(Nc2cc(-c3ccnc(-n4ccn5c6c(cc5c4=O)CC(C)(C)C6)c3CO)cn(C)c2=O)nc1 [Compound 126] | 26 | 20 |
| C[C@@H](CNC1COC1)Nc1ccc(Nc2cc(-c3ccnc(-n4ccn5c6c(cc5c4=O)CC(C)(C)C6)c3CO)cn(C)c2=O)nc1 [Compound 127] | 10 | 18 |
| C[C@H]1CN(C2COC2)CCN1c1ccc(Nc2cc(-c3ccnc(-n4ccn5c6c(cc5c4=O)CCCCC6)c3CO)cn(C)c2=O)nc1 [Compound 92] | 10 | 7 |
| COCCN1CCN(c2ccc(Nc3cc(-c4ccnc(-n5ncn6c7c(cc6c5=O)CC(C)(C)C7)c4CO)cn(C)c3=O)nc2)[C@@H](C)C1 [Compound 206] | 13 | 7 |
| Cn1cc(-c2ccnc(-n3ccn4c5c(cc4c3=O)CC(C)(C)C5)c2CO)cc(Nc2ccc(N3C4CC3CN(C3COC3)C4)cn2)c1=O [Compound 235] | 22 | 13 |
| COCCN1CCn2nc(Nc3cc(-c4ccnc(-n5ccn6c(c(F)c7ccccc76)c5=O)c4CO)cn(C)c3=O)cc2C1 [Compound 177] | 6 | 21 |
| [2H]C(O)c1c(-c2cc(Nc3ccc(N4CCN(C5([2H])COC5)C[C@@H]4C)cn3)c(=O)n(C)c2)ccnc1-n1ccn2c3c(cc2c1=O)CC(C)(C)C3 (mixture of isomers) [Compound 101] | 6 | 2 |
| C[C@@H]1CN(c2ccc(Nc3cc(-c4ccnc(-n5ncn6c7c(cc6c5=O)CC(C)(C)C7)c4CO)cn(C)c3=O)nc2)[C@@H](C)CN1C1COC1 [Compound 193] | 12 | 6 |
| Cc1nn(-c2nccc(-c3cc(Nc4ccc(N5CCN(C6COC6)C[C@@H]5C)cn4)c(=O)n(C)c3)c2CO)c(=O)c2cc3c(n12)CC(C)(C)C3 [Compound 104] | 10 | 6 |
| [2H]C(O)c1c(-c2cc(Nc3ccc(N4CCN(C5COC5)C[C@@H]4C)cn3)c(=O)n(C)c2)ccnc1-n1ccn2c3c(cc2c1=O)CC(C)(C)C3 (some centres unmarked) [Compound 100] | 5 | 2 |
| Cn1cc(-c2ccnc(-n3ncn4c5c(cc4c3=O)CC(C)(C)C5)c2CO)cc(Nc2cc3n(n2)CCN(C2CCC2)C3)c1=O [Compound 170] | 18 | 16 |

Continued, values first:

| IC50 (BTK recombinant protein) [nM] | IC50 [1] [nM] | Structure (SMILES) |
| --- | --- | --- |
| 19 | 8 | C[C@H]1CN(C2COC2)CCN1c1ccc(Nc2cc(-c3ccnc(-n4ncn5c(c(F)c6ccccc65)c4=O)c3CO)cn(C)c2=O)nc1 [Compound 149] |
| 11 | 9 | Cn1cc(-c2ccnc(-n3ccn4c5c(c(F)c4c3=O)CCCC5)c2CO)cc(Nc2ccc(N3CCN(C4COC4)CC3(C)C)cn2)c1=O [Compound 225] |
| 4 | 12 | C[C@H]1CN(C2COC2)CCN1c1ccc(Nc2cc(-c3ccnc(-n4ccn5c6c(cc5c4=O)CC(C)(C)[C@@H]6O)c3CO)cn(C)c2=O)nc1 [Compound 198] |
| 171 | 139 | COCc1c(-c2cc(Nc3ccc(N4CCN(C5COC5)C[C@@H]4C)cn3)c(=O)n(C)c2)ccnc1-n1ccn2c3c(cc2c1=O)CC(C)(C)C3 [Compound 228] |
| 106 | 155 | Cc1c(-c2ccnc(-n3ccn4c5c(cc4c3=O)CC(C)(C)C5)c2CO)cc(Nc2ccc(N3CCN(C4COC4)C[C@@H]3C)cn2)c(=O)n1C [Compound 11] |
| 756 | 480 | CC(C)n1cc(Nc2nc(-c3ccnc(-n4ccn5c6c(cc5c4=O)CC(C)(C)C6)c3CO)cn(C)c2=O)nn1 [Compound 4] |
| 51 | 14 | CCn1nc(-c2ccnc(-n3ccn4c5c(cc4c3=O)CC(C)(C)C5)c2CO)cc(Nc2ccc(N3CCN(C4COC4)C[C@@H]3C)cn2)c1=O [Compound 14] |
| 5 | 3 | CC1c2cc(Nc3cc(-c4ccnc(-n5ccn6c7c(cc6c5=O)CC(C)(C)C7)c4CO)cn(C)c3=O)nn2CCN1C1COC1 (centres unmarked) [Compound 112] |
